According to patent US6391899B1, “Compounds and compositions for treating tissue ischemia” (North Shore—Long Island Jewish Research Institute, priority 1998, dated 2002):
Read-outs that look alike come from different tables or passages of the source.

Key:
[1] = tested on: glial cell cultures (HTB14); test: Toxicity of test compounds in parallel glial cultures incubated without 3-AP; type: cell-based, human; conditions: Table V; HTB14, parallel cultures without 3-AP
Protocol: In an alternative embodiment of the screening assay of Example 3, various concentrations of the test compound (e.g. 10-1000 μM) are incubated with the indicator cells in presence of a fixed concentration fo 3-AP (e.g, 200 μM).

[2] = tested on: glial cell cultures (HTB14); test: cells; conditions: Homo sapiens, read-out: 50% Effective dose (protection against 3-AP)
[3] = tested on: focal cerebral ischemia; conditions: for volume of brain tissue infarcted vs vehicle-treated controls: i.p. beginning 15 minutes after onset of ischemia, total dose PICVA-25 and PICVA-27 200 mg/kg, PICVA-13 400 mg/kg
[4] = tested on: neuronal cell cultures (HTB11); conditions: HTB11 cells, overnight incubation
[5] = tested on: cultured hippocampal neurons; test: NMDA neurotoxicity in cultured hippocampal neurons (trypan blue); type: cell-based
Protocol: When aminoguanidine was added to primary neuronal cultures treated with N-methy-D-aspartic acid (NMDA), no attenuation of cytotoxicity was observed (Table III). […] Cultured hippocampal neurons (12-15 days in vitro) were exposed to NMDA (500 μM) for 5 min in MEM (without serum) supplemented with glutamine (100 μM) and glycine (10 μM), rinsed in Earle's Basic Salt Solution, and incubated under standard conditions for 24 hr (37° C.). Neuronal survival was assessed microscopically, by counting a sample of cell somas for uptake vs. exclusion of trypan blue. Aminoguanidine or the non-competitive excitatory amino acid receptor antagonist, MK-801, was added just prior to NMDA and in the final rinse at the concentrations shown. Data are mean±s.e. of nine wells from three replicate experiments.

[6] = tested on: glial cells (HTB14); test: Apoptosis detection in glial cells (TUNEL flow cytometry, DNA fragmentation); type: cell-based, human; conditions: for development of TUNEL-positivity in 3-aminopropanal-treated glial cells: iNOS inhibitor added, cytofluorography
Protocol: (§1) Additional evidence of apoptosis by flow cytometric detection of DNA strand breaks was obtained using the terminal deoxynucleotidyl taansferase mediated dUTP nick end labeling TUNEL) method (Gavrieli et al., J. Cell. Biol 119:493-501, 1992). Terminal deoxynucleotidyl transferase mediated dUTP nick end labeling (TUNEL) staining was performed on cell cultures treated with 3-aminopropanal, as indicated. Cells were harvested and collected by centrifugation at 1,500 rpm for 5 min. The pellets were fixed with 1×ORTHO Permeafix (Orthodiagnostics) at room temperature for 40 min. After washing with Dulbecco's phosphate-buffered saline containing 1% bovine serum albumin (PBS-BSA), cells were stained by the TUNEL method using the Oncor Apop Tag Direct Fluorescein kit (Oncor), in accordance with the manufacturer's instructions. A negative control was performed by preparing a reaction solution that was devoid of TdT. A Becton Dickinson flow cytometer was used for all analyses; five to ten thousand events (ungated) were collected according to a single color procedure.
(§2) DNA samples from HTB11 or HTB14 cells (20-30×10^6 cells) were assayed for strand breakage by resuspending harvested cells (treated with 3-AP or control) in a reaction buffer containing proteinase K, and incubating overnight at 55° C. RNase was added to a final concentration of […] and the samples were incubated at 37° C. for one hour. DNA was extracted three times with phenol/chloroform and twice with chloroform and precipitated in two volumes of chilled 100% ethanol and 0.3M sodium acetate (pH 5.2). The DNA was resuspended in 50 μl of dH2O, fractionated by 1.5% agarose gel electrophoresis, and stained with SYBR Green I nucleic acid stain (Molecular Probes).
(§3) There was also no evidence of apoptosis as measured with Annexin V, a method used to detect loss of cell membrane phospholipid asymmetry that has be associated with apoptosis. Annexin V/propidium iodide (PI) staining was performed using a kit in accordance to the manufacturer's instructions (Me Apoptosis Detection Kit, R&D Systems, Minneapolis). Cells were analyzed by flow cytometry within one hour of completion of staining. The AnnexinV-FITC and PI signals were quantitated independently according to a two-color flow cytometric procedure.

[7] = tested on: polyamine oxidase; test: Polyamine oxidase activity in ischemic brain homogenates (conversion of added spermine, HPLC); type: biochemical, rat; conditions: for polyamine oxidase activity in ischemic brain homogenate (FIG. 1): 1 mM added 5 minutes prior to spermine; for IC50: homogenates of ischemic brain, inhibitor added 5 minutes prior to spermine, read-out: I.C.50 for polyamine oxidase activity
Protocol: To measure tissue polyamine oxidase activity, brain homogenates were prepared from the anatomic region perfused by the middle cerebral artery, and total polyamine oxidase activity determined using a method described previously (Seiler and Bolkenius, Neurochem. Res. 10:529-544, 1985; Seiler et al., Med. Biol. 59:334-346, 198 1; and […] et al., J. Neurosci. Res. 28:434-441, 1991), relying on the metabolic conversion of added spermine.

[8] = tested on: rat brain cortex; conditions: for protection against spermine-mediated intracortical damage, systemic administration: i.p. treatment, intracortical spermine 25 μg, infarct volume 48 hr; for cell necrosis and apoptosis at the injection zone (eosin, TUNEL staining): intracortical microinjection, histology 24 hr
[9] = target: T1, iNOS (Mus musculus, UniProt P29477); test: iNOS activity in RAW 264.7 cell lysates; type: biochemical; conditions: 1 mM
T1 construct: iNOS activity measured in RAW 264.7 cell lysates; endogenous in cells; host or cells: RAW 264.7 cell lysates
T1 sequence (P29477 whole entry): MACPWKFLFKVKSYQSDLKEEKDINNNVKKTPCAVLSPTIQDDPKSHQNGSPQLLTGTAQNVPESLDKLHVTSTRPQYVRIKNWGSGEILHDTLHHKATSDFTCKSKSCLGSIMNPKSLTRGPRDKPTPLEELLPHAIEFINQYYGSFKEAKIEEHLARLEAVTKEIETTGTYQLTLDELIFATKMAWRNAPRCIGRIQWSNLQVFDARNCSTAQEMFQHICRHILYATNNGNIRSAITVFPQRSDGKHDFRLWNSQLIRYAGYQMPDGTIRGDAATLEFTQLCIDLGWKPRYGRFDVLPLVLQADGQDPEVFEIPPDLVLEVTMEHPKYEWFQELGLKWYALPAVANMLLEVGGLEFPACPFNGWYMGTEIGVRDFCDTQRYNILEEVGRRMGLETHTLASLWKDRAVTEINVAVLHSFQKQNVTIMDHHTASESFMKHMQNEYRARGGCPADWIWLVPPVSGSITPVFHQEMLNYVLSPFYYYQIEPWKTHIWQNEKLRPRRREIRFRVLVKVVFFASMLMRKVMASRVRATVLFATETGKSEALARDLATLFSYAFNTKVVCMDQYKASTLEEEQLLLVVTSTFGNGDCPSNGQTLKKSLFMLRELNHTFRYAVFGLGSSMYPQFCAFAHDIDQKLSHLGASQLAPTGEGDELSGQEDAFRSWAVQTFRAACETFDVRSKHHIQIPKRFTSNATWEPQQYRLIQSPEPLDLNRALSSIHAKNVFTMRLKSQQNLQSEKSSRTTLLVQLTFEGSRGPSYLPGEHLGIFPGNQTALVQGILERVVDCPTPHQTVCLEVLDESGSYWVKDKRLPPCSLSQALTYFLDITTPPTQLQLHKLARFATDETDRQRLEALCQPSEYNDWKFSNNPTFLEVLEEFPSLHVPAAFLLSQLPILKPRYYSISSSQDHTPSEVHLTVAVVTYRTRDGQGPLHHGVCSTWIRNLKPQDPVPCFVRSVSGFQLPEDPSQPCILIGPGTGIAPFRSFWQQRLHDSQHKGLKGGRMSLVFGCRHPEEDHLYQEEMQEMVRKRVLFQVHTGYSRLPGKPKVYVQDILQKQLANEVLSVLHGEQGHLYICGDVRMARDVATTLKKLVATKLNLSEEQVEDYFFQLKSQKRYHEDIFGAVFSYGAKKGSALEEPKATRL

[10] = tested on: glial cell cultures (HTB14); conditions: for inhibition of 3-aminopropanal-induced cell death: HTB14, 3 hours pretreatment, then 3-aminopropanal 5 hours, MTT
[11] = tested on: neuronal cell cultures (HTB11); test: Apoptosis and cell death detection in neuronal cells (TUNEL, Annexin V, DNA electrophoresis, scatter analysis); type: cell-based, human; conditions: for induction of apoptosis in neuronal cells: HTB11, TUNEL, Annexin V, camptothecin 15 μg/ml for 20 hr
Protocol: as §1
as §2, with “The DNA was resuspended in 50 μl of dH2O, fractionated by 1.5% agarose gel electrophoresis, and stained with SYBR Green I nucleic acid stain (Molecular Probes).” left out
as §3, with “Annexin V/propidium iodide (PI) staining was performed using a kit in accordance to the manufacturer's instructions (Me Apoptosis Detection Kit, R&D Systems, Minneapolis).” left out

[12] = tested on: primary rat astroglial cell cultures; test: 3-aminopropanal cytotoxicity in primary astroglial cultures; type: cell-based
[13] = tested on: intracerebral TNF synthesis; test: Intracerebral TNF synthesis after central administration; type: in vivo; conditions: centrally administered; data not illustrated
[14] = with NMDA (500 μM) 5 min, MK-801 20 μM or aminoguanidine 1000 μM, 24 hr
[15] = 25 μg in 2 μl intracortical, assessed 48 hr later

## O=C(C[n+]1ccccc1)c1ccccc1.[Br-] [p27a, N-(2-phenyl-2-oxoethyl)-pyridinium bromide]
[1]
  50% Toxic dose: 5 mM
[2]
  EC50: 425 µM
[3]; Lewis, rat, in vivo
  mortality associated with treatment in the in vivo screening tests: 25%
[3]
  volume of brain tissue infarcted vs vehicle-treated controls: significantly reduced

## N=C(N)NN [aminoguanidine]
[4]
  LD50 for 3-aminopropanal in the presence of the PAO inhibitor vs without: similar
[5]; [14]
  Neurotoxicity (% dead): 79 ± 4 % dead
[5]; without NMDA, aminoguanidine 1000 μM alone
  Neurotoxicity (% dead): 7 ± 2 % dead
[6]
  development of TUNEL-positivity in 3-aminopropanal-treated glial cells: failed to attenuate
[7]
  polyamine oxidase activity in ischemic brain homogenate (FIG. 1): inhibited
  IC50: 400 µM
[8]; given intracortically simultaneously with spermine
  protection against intracortical spermine-mediated cell death, intracortical administration: conferred significant protection
[8]
  protection against spermine-mediated intracortical damage, systemic administration: conferred significant protection
[8]; intracortical 3-aminopropanal
  effect on direct cytotoxicity of intracortical 3-aminopropanal: failed to significantly attenuate
[8]; intracortical spermine
  effect on spermine-induced cell necrosis and apoptosis (histology): significantly inhibited

## NCCCCN [putrescine]
[8]; [15]
  brain damage after intracortical microinjection (TTC staining): cell death was not observed
[8]
  cell necrosis and apoptosis at the injection zone (eosin, TUNEL staining): not observed

## CN[C@H](CC(=O)O)C(=O)O [NMDA, N-methy-D-aspartic acid]
[5]; NMDA (500 μM) alone, 5 min exposure, 24 hr
  Neurotoxicity (% dead): 88 ± 4 % dead

## CCN(CC)CCCC(C)Nc1ccnc2cc(Cl)ccc12 (stereo not shown) [chloroquine]
[3]; rat, in vivo
  systemic homeostatic responses to cerebral ischemia (blood pressure, heart rate, body temperature, arterial blood gases): did not significantly alter
[9]
  iNOS activity: 11800±900 DPM/mg protein
[7]
  polyamine oxidase activity in ischemic brain homogenate (FIG. 1): inhibited
  IC50: 40 µM
[8]
  protection against spermine-mediated intracortical damage, systemic administration: conferred significant protection

## Ac-YVAD-CMK
[10]
  inhibition of 3-aminopropanal-induced cell death: conferred dose-dependent inhibition

## NCCC=O [3-aminopropanal]
[11]
  induction of apoptosis in neuronal cells: did not induce apoptosis
[11]; HTB11 neurons after 3-aminopropanal treatment
  cell death by forward scatter/side scatter analysis: 55.7%
[6]; 13 hours of exposure to 275 μM
  glial cells stained TUNEL-positive: 76%
[6]; HTB-14 glial cells exposed to 3-aminopropanal
  apoptosis-specific DNA fragmentation: apoptosis-specific DNA fragmentation pattern was observed
[12]
  cytotoxic LD50: 80 ± 9 µM
[8]
  cell necrosis and apoptosis at the injection zone (eosin, TUNEL staining): both cellular necrosis and programmed cell death
[8]; rat, in vivo
  brain damage after intracortical microinjection (TTC staining): caused significant cytotoxicity
[13]
  intracerebral TNF synthesis: directly stimulated

## O=C(O)c1cc(Br)c[n+](CC(=O)c2ccccc2)c1.[Br-] [AP22, N-(2-phenyl-2-oxoethyl)-3-bromo-5-carboxypyridinium bromide]
[1]
  50% Toxic dose: 1 mM
[2]
  EC50: 199 µM

## CNC(=N)NCCC[C@H](N)C(=O)O [L-NMMA, L-N^G-monomethylarginine]
[6]
  development of TUNEL-positivity in 3-aminopropanal-treated glial cells: failed to attenuate

## Ac-DEVD-CHO
[10]
  inhibition of 3-aminopropanal-induced cell death: not

## NCCCNCCCCNCCCN [spermine]
[8]
  cell necrosis and apoptosis at the injection zone (eosin, TUNEL staining): caused cell necrosis and apoptosis
[8]; rat, in vivo
  brain damage after intracortical microinjection (TTC staining): brain tissue damage

## CC[C@@]1(O)C(=O)OCc2c1cc1n(c2=O)Cc2cc3ccccc3nc2-1 [camptothecin]
[11]
  induction of apoptosis in neuronal cells: Apoptosis was induced

## C[C@]12N[C@H](Cc3ccccc31)c1ccccc12 [MK-801]
[5]; [14]
  Neurotoxicity (% dead): 8 ± 3 % dead

## NCCCCNCCCN [spermidine]
[8]; [15]
  brain damage after intracortical microinjection (TTC staining): brain tissue damage

## O=C(C[n+]1ccsc1)c1ccccc1.[Br-] [p25, 3-(2-phenyl-2-oxoethyl)-thiazolium bromide]
[3]
  volume of brain tissue infarcted vs vehicle-treated controls: significantly reduced
[3]; rats with focal cerebral ischemia
  mortality associated with treatment in the in vivo screening tests: 38%

## NC(=O)c1cc[n+](CC(=O)c2ccccc2)cc1C(N)=O [AP21, N-(2-phenyl-2-oxoethyl)-3,4-dicarboxyamide-pyridinium bromide]
[10]; read-out: 50% Effective dose (protection against 3-AP), Table V, HTB14, fixed 3-AP (e.g. 200 μM)
  EC50: 100 µM
